Positions of bridges follow the written chain, without caps; N, C: chain ends. Non-standard residues stand in square brackets, D forms with d. Residues, ends and D or L forms follow the SMILES beside them. dDip = N[C@@H](C(=O)O)C(c1ccccc1)c1ccccc1; Phe(4-Cl) = N[C@@H](Cc1ccc(Cl)cc1)C(=O)O; dPhe(4-Cl) = N[C@H](Cc1ccc(Cl)cc1)C(=O)O; Dip = N[C@H](C(=O)O)C(c1ccccc1)c1ccccc1; Phe(4-F) = N[C@@H](Cc1ccc(F)cc1)C(=O)O; dPhe(4-F) = N[C@H](Cc1ccc(F)cc1)C(=O)O; 2Nal = N[C@@H](Cc1ccc2ccccc2c1)C(=O)O; d2Nal = N[C@H](Cc1ccc2ccccc2c1)C(=O)O; 3Pal = N[C@@H](Cc1cccnc1)C(=O)O; Tle = CC(C)(C)[C@H](N)C(=O)O
Each compound was assayed on rat pituitary cells. Conditions: 3 h.
Assay type: cell-based
Excerpt: Bioassay on the In Vitro Release of Growth Hormone
(a) Rat Pituitary Cell Dispersion
Pituitaries from adult Charles River CD male rats (Wilmington, Mass.) housed under controlled conditions were dispersed and cultured using aseptic technique by modification of previously described methods (Hoefer, M. T., et al., Mol. Cell. Endocrinol. 35:229 (1984); Ben-Jonathan, N., et al., Methods Enzymol. 103:249 (1983); and Heiman, M. L., et al., Endocrinology 116:410 (1985)). Pituitaries were removed from sacrificed rats, sectioned, and then placed into a siliconized, liquid scintillation vial containing 2 ml 0.2% trypsin (Worthington Biochemicals, Freehold, N.J.) in sterile-filtered Krebs-Ringer bicarbonate buffer supplemented with 1% bovine serum albumin, 14 mM glucose, modified Eagle medium (MEM) vitamin solution, and MEM amino acids (Gibco Laboratories, Grand Island, N.Y.) (KRBGA). All glassware was siliconized as described by Sayers, et al., Endocrinology 88:1063 (1971). The fragments were incubated in a water bath for 35 min at 37° C. with agitation. The vial contents then were poured into a scintillation vial containing 2 ml 0.1% DNase (Sigma Chemical Co., St. Louis, Mo.) in KRBGA and incubated for 2 min at 37° C. with agitation. After incubation, the tissue was decanted into a 15 ml centrifuge tube and allowed to settle. Medium was discarded, and pituitary sections were washed 3 times with 1 ml fresh-KRBGA. The cells were then dispersed in 2 ml 0.05% LBI (lima bean trypsin inhibitor, Worthington Biochemicals) by gently drawing the fragments into and expelling them out of a siliconized, fire polished Pasteur pipette. Dispersed cells were then filtered through a 630 μm diameter Nylon mesh (Tetko, Elmsford, N.Y.) into a fresh 15 ml centrifuge tube. An additional 2 ml of 0.05% LBI solution was used to rinse the first tube and was transferred to the second tube with filtering.
The dispersed cells were then further diluted with approximately 15 ml sterile-filtered Dulbecco's modified Eagle medium (GIBCO), which was supplemented with 2.5% fetal calf serum (GIBCO), 3% horse serum (GIBCO), 10% fresh rat serum (stored on ice for no longer than 1 hr) from the pituitary donors, 1% MEM non-essential amino acids (GIBCO), and gentamycin (10 ng/ml; Sigma) and nystatin (10,000 U/ml; GIBCO). The cells were poured into a 50 ml round-bottomed glass extraction flask with a large diameter opening and then randomly plated at a density of approximately 200,000 cells per well (Co-star cluster 24; Rochester Scientific Co., Rochester, N.Y.). The plated cells were maintained in the above Dulbecco's medium in a humidified atmosphere of 95% air and 5% CO2 at 37° C. for 4-5 days.
(c) Experimental Incubation and IC50 Determination
In preparation for a hormone challenge, the cells were washed 3 times with medium 199 (GIBCO) to remove old medium and floating cells. Each treatment well contained a total volume of 1 ml medium 199 containing 1% BSA (fraction V; Sigma) with treatments as described below. Each antagonist candidate was tested using a single 24-well cell culture plate. Each treatment was performed in triplicate. Each plate contained 8 treatment groups: one 1 nM growth hormone releasing factor (GRF) (1-29)NH2-stimulated control group; one 1 nM somatostatin-inhibited control group in the presence of 1 nM GRF(1-29)NH2; and 6 doses of a given antagonist in the presence of both 1 nM SRIF and 1 nM GRF per plate. After 3 hrs at 37° C. in a air/carbon dioxide atmosphere (95/5%), the medium was removed and stored at −20° C. until radioimmunoassayed for growth hormone content. IC50's of each antagonist versus 1 nM SRIF were calculated using a computer program (SigmaPlot, Jandel Scientific, San Rafael, Calif.) with the maximum response constrained to the value of the 1 nM GRF(1-29)NH2-stimulated control.
Work on `CC(C)[C@@H]1NC(=O)[C@H](CCCCN)NC(=O)[C@@H](Cc2c[nH]c3ccccc23)NC(=O)[C@H](Cc2cccnc2)NC(=O)[C@H](NC(=O)[C@@H](N)Cc2ccc(Cl)cc2)CSSC[C@@H](C(=O)N[C@@H](Cc2ccc(Cl)cc2)C(N)=O)NC1=O` [Analog No. 43, H2-Cpa-D-Cys-Pal-D-Trp-Lys-Val-Cys-Cpa-NH2] (H-[Phe(4-Cl)][dC][3Pal][dW]KVC[Phe(4-Cl)]-NH2; disulfide 2-7) yielded an IC50 of 0.82 nM.
`CC(C)[C@@H]1NC(=O)[C@H](CCCCN)NC(=O)[C@@H](Cc2c[nH]c3ccccc23)NC(=O)[C@H](Cc2cccnc2)NC(=O)[C@H](NC(=O)[C@@H](N)C(c2ccccc2)c2ccccc2)CSSC[C@@H](C(=O)N[C@@H](Cc2ccc3ccccc3c2)C(N)=O)NC1=O` [Analog No. 13, H2-Dip-D-Cys-Pal-D-Trp-Lys-Val-Cys-β-Nal-NH2] (H-[Dip][dC][3Pal][dW]KVC[2Nal]-NH2; disulfide 2-7) was tested, and the IC50 was 110 nM.
With `CC(C)(C)[C@@H]1NC(=O)[C@H](CCCCN)NC(=O)[C@@H](Cc2c[nH]c3ccccc23)NC(=O)[C@H](Cc2cccnc2)NC(=O)[C@H](NC(=O)[C@@H](N)Cc2ccc(F)cc2)CSSC[C@@H](C(=O)N[C@@H](Cc2ccc3ccccc3c2)C(N)=O)NC1=O` [Analog No. 50, H2-p-F-Phe-D-Cys-Pal-D-Trp-Lys-Tle-Cys-β-Nal-NH2] (H-[Phe(4-F)][dC][3Pal][dW]K[Tle]C[2Nal]-NH2; disulfide 2-7) the IC50 was 1.1 nM.
For `CC(C)[C@@H]1NC(=O)[C@H](CCCCN)NC(=O)[C@@H](Cc2c[nH]c3ccccc23)NC(=O)[C@H](Cc2c[nH]cn2)NC(=O)[C@H](NC(=O)[C@@H](N)Cc2ccc3ccccc3c2)CSSC[C@@H](C(=O)N[C@@H](C(N)=O)C(c2ccccc2)c2ccccc2)NC1=O` [Analog No. 19, H2-β-Nal-D-Cys-His-D-Trp-Lys-Val-Cys-D-Dip-NH2] (H-[2Nal][dC]H[dW]KVC[dDip]-NH2; disulfide 2-7), the IC50 was 110 nM.
With `CC(C)[C@H](NC(=O)[C@H](CCCCN)NC(=O)[C@@H](Cc1c[nH]c2ccccc12)NC(=O)[C@H](Cc1ccc(O)cc1)NC(=O)[C@@H](Cc1ccc(Cl)cc1)NC(=O)[C@H](N)Cc1ccc2ccccc2c1)C(=O)N[C@@H](Cc1ccccc1)C(=O)N[C@H](C(N)=O)[C@@H](C)O` [Analog No. 8, H2-D-β-Nal-D-Cpa-Tyr-D-Trp-Lys-Val-Phe-Thr-NH2] (H-[d2Nal][dPhe(4-Cl)]Y[dW]KVFT-NH2) the IC50 was 3960 nM.
For `CC(C)(C)[C@@H]1NC(=O)[C@H](CCCCN)NC(=O)[C@@H](Cc2c[nH]c3ccccc23)NC(=O)[C@H](Cc2cccnc2)NC(=O)[C@H](NC(=O)[C@H](N)Cc2ccc(F)cc2)CSSC[C@@H](C(=O)N[C@@H](Cc2ccc3ccccc3c2)C(N)=O)NC1=O` [Analog No. 51, H2-D-p-F-Phe-D-Cys-Pal-D-Trp-Lys-Tle-Cys-β-Nal-NH2] (H-[dPhe(4-F)][dC][3Pal][dW]K[Tle]C[2Nal]-NH2; disulfide 2-7), the IC50 was 12 nM.
Work on `CC(C)[C@@H]1NC(=O)[C@H](CCCCN)NC(=O)[C@@H](Cc2c[nH]c3ccccc23)NC(=O)[C@H](Cc2cccnc2)NC(=O)[C@H](NC(=O)[C@@H](N)Cc2ccc3ccccc3c2)CSSC[C@@H](C(=O)N[C@H](Cc2ccc(F)cc2)C(N)=O)NC1=O` [Analog No. 28, H2-β-Nal-D-Cys-Pal-D-Trp-Lys-Val-Cys-D-p-F-Phe-NH2] (H-[2Nal][dC][3Pal][dW]KVC[dPhe(4-F)]-NH2; disulfide 2-7) yielded an IC50 of 100 nM.

Same assay, conditions: cultured rat pituitary cells; 1 nM SRIF and 1 nM GRF(1-29)NH2; 3 hrs at 37° C.; growth hormone by radioimmunoassay; read-out: IC50 of antagonist versus 1 nM SRIF (growth hormone release)
In the case of `CC(C)[C@@H]1NC(=O)[C@H](CCCCN)NC(=O)[C@@H](Cc2c[nH]c3ccccc23)NC(=O)[C@H](Cc2ccc(O)cc2)NC(=O)[C@H](NC(=O)[C@H](N)Cc2ccc3ccccc3c2)CSSC[C@@H](C(=O)N[C@@H](Cc2ccc3ccccc3c2)C(N)=O)NC1=O` [Analog No. 9, H2-D-β-Nal-D-Cys-Tyr-D-Trp-Lys-Val-Cys-β-Nal-NH2] (H-[d2Nal][dC]Y[dW]KVC[2Nal]-NH2; disulfide 2-7), the IC50 is reported as 1360 nM.

From patent US9133262B2, “Somatostatin antagonists” (Ipsen Pharma S.A.S., priority 1996, dated 2015)
